# According to patent US20100105688A1, “PHARMACEUTICAL COMPOSITIONS COMPRISING 3,5-DIAMINO-6-(2,3-DICHLOPHENYL)-1,2,4-TRIAZINE OR R(-)-2,4-DIAMINO-5-(2,3-DICHLOROPHENYL)-6-FLUOROMETHYL PYRIMIDINE AND AN NK1” (GLAXO GROUP LIMITED, priority 2007, published 2010):
# What was measured:
# [1] = test system: Male CD rats; assay: Rat MEST model (seizure threshold, CC50); format: in vivo
# Experimental: This work was conducted in compliance with the Home Office Guidance on the operation of the Animals (Scientific Procedures) Act 1986 and GlaxoSmithKline ethical standards. Male CD rats (100-145 g) were supplied by Charles River, UK. Animals were group housed (6 animal per cage) with free access to food (Standard rodent chow; Harlan, UK) and water under a 12 h light/dark cycle (lights on at 0700 h). A period of at least one week between arrival at GSK and the study was allowed in all cases.
# Animals were administered a test compound at the appropriate dose, route and pre-treatment time and returned to their home cage. Testing occurred in a separate room from that used for housing. Testing involved determining the threshold for tonic hindlimb extensor seizures using a Hugo Sachs Electronik stimulator which delivers a constant current of 0.3 second duration, 50 Hz, sinewave form, fully adjustable between 1 and 300 mA. Stimuli were delivered via corneal electrodes (Stean T O, Atkins A R, Heidbreder C A, Quinn L P, Trail B K, Upton N. (2005) Br J. Pharmacol. 144(5):628-35). Seizure threshold was determined using the ‘up and down’ method of Kimball et al. (1957)(Kimball A W, Burnett W T Jr, Doherty D G. (1957) Radiat Res. 7(1):1-12). The first animal tested in each group was stimulated with a current that might be expected to be close to the threshold for induction of a seizure. If a tonic seizure was not induced, then next animal in the group received a stimulus 5 mA higher. If a tonic seizure was induced, then the next animal received a stimulus 5 mA lower. This is repeated for all animals within the control (vehicle) group. In the case of groups treated with a sodium channel blocker steps of 10 to 30 mA were used.
# All doses were calculated as base. ENa9 and ENa13 were dosed via the subcutaneous (s.c.) route at 1 ml/kg in a 2% v/v DMSO/saline vehicle 30 minutes prior to test. ENa7 and ENa14 were dosed orally (p.o.) in a 1% w/v methylcellulose/water vehicle at 2 ml/kg, 60 minutes before test. Compound ENK6 was dosed with via the intraperitoneal (i.p.) route 60 minutes before the test or via the s.c. route 15 minutes before test. In both cases ENK6 was dissolved in saline.
# Induction of seizure is measured as an all-or-nothing effect scored as either present (+) or absent (0) for each animal. The data for each treatment group were recorded as the number of +'s and 0's at each current level employed and this information was then used to calculate the CC50 value (current required for 50% of animals to show seizure behaviour)+standard error of the mean according to the method of Kimball et al. (1957). Drug effects were calculated as the % change in CC50. Significant differences between drug-treated animals and appropriate vehicle treated groups were assessed according to the methods of Litchfield and Wilcoxon (1949). The statistical significance of differences between sodium channel blocker alone or in combination with ENK6 was assessed using a Student's t test.
# [2] = test system: rats; assay: FCA (Freunds Complete Adjuvant) model of inflammatory hypersensitivity to pain (weight bearing); format: in vivo, rat
# Experimental: • Naïve weight bearing readings were taken. The hypersensitivity to pain was measured using the Rat incapacitance tester (Linton instruments). This instrument is serviced once a year and should be regularly calibrated • All rats then received an intraplantar injection of 100 ul of FCA (Freund's complete adjuvant) into the left hind paw. The FCA was sonicated for 15 minutes prior to use. • Approximately 23 hrs after administration of the FCA, pre-dose weight bearing readings were taken. All animals were then ranked and randomised for dosing according to their FCA window (predose difference in grams−naïve difference in grams). […] Celebrex 10 mg/kg p.o. (positive control) as appropriate according to ranking and randomisation. • Animals were assessed in the weight bearing apparatus 1 hour post dose. • The study was blind and randomised by FCA window using the Latin square method. • % reversals were calculated by using the naïve, pre-dose and post dose values as follows: % Reversal=[(Pre-dose−Post-dose)/(Pre-dose−Naïve)]×100 • Graphs and ED50 were calculated where appropriate using Prism4. • Statistical analysis was carried out using ANOVA followed by calculating the least square means using the statistical package Statistica 6.1 • From the dose response curves the ED20 was determined for the combination study • Naïve weight bearing readings were taken. The hypersensitivity to pain was measured using the Rat incapacitance tester (Linton instruments). This instrument is serviced once a year and should be regularly calibrated • All rats then received an intraplantar injection of 100 ul of FCA (Freund's complete adjuvant) into the left hind paw. The FCA was sonicated for 15 minutes prior to use. • Approximately 23 hrs after administration of the FCA, pre-dose weight bearing readings were taken. All animals were then ranked and randomised for dosing according to their FCA window (predose difference in grams−naïve difference in grams). […] See table 5 for details of the groups • Animals were assessed in the weight bearing apparatus 1 hour post dose. • The study was blind and randomised by FCA window using the Latin square method. • % reversals were calculated by using the naïve, pre-dose and post dose values as follows: % Reversal=[(Pre-dose−Post-dose)/(Pre-dose−Naïve)]×100 • Statistical analysis was carried out using ANOVA followed by calculating the least square means using the statistical package Statistica 6.1 • ED50 and ED20 values and graphs were calculated using prism5 • Naïve weight bearing readings were taken. The hypersensitivity to pain was measured using the Rat incapacitance tester (Linton instruments). This instrument is serviced once a year and should be regularly calibrated • All rats then received an intraplantar injection of 100 ul of FCA (Freund's complete adjuvant) into the left hind paw. The FCA was sonicated for 15 minutes prior to use. • Approximately 23 hrs after administration of the FCA, pre-dose weight bearing readings were taken. All animals were then ranked and randomised for dosing according to their FCA window (predose difference in grams—naïve difference in grams). Rats with FCA window less than 30 g were excluded from the study. • Animals were then dosed with the following in a fixed dose ratio of 1.25:1 according to ranking and randomisation. (Table 6) […] Graphs and ED50 were calculated where appropriate using Prism5 • Statistical analysis was carried out using ANOVA followed by calculating the least square means using the statistical package Statistica 6.1
compound,measurement,setting,value
"Nc1nnc(-c2cccc(Cl)c2Cl)c(N)n1 [ENa7, 3,5-diamino-6-(2,3-dichlorophenyl)-1,2,4-triazine, reference compound]",increase in CC50 (mA),[1]; sodium channel blocker 1 mg/kg p.o. in the presence of ENK6 10 mg/kg s.c. (first experiment),61%
same,increase in CC50 (mA),[1]; sodium channel blocker 1 mg/kg p.o. in the presence of ENK6 30 mg/kg s.c.,145%
same,increase in CC50 (mA),[1]; sodium channel blocker 3 mg/kg p.o. in the presence of ENK6 30 mg/kg s.c. (second experiment),233%
same,effect on seizure threshold,"[1]; sodium channel blocker alone, 1 mg/kg p.o., 60 minutes before the test",little or no increase in seizure threshold
same,increase in seizure threshold,"[1]; sodium channel blocker alone, 3 mg/kg p.o., 60 minutes before the test, two independent experiments",128-205%
same,ED50,"[2]; Rattus norvegicus, po, compound alone, 0.1-3.0 mg/kg p.o. as printed, 1 hour post dose, range in brackets as printed, read-out: ED50, reversal of the FCA induced hypersensitivity",0.35 mg/kg
same,reversal of the FCA induced hypersensitivity,"[2]; compound alone, 0.1-3.0 mg/kg, 1 hour post dose",dose related reversal
same,effect on the FCA induced hypersensitivity,[2]; each compound alone at its ED20 dose (ENa7 0.1 mg/kg p.o.; ENK6 0.08 mg/kg s.c.),no significant effect
